From patent publication US7659270B2, “Hepatitis C virus inhibitors” (Bristol-Myers Squibb Company, priority 2006, dated 2010)

These compounds were tested on HCV 1b-377-neo replicon cells (assay: HCV replicon assay (HCV 1b-377-neo replicon cells)). Conditions: Hepatitis C virus, read-out: EC50 range against HCV 1b (Range).
Type: cell-based, Hepatitis C virus genotype 1b
How it was run: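 HCV genotype 1b (1b-377-neo) replicon cells, run as a validated replicon assay; parallel testing in replicon cells carrying the NS5A Y2065H resistance mutation.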

Row | SMILES | EC50 [nM]
1 | C[C@@H](c1ncc(-c2ccc(-c3ncc(-c4cnc([C@@H]5CCCN5C(=O)[C@@H](c5ccccc5)N(C)C)[nH]4)cn3)cc2)[nH]1)N(C)C(=O)[C@@H](c1ccccc1)N(C)C [Example 152j-20, (2R)-2-(dimethylamino)-N-((1S)-1-(5-(4-(5-(2-((2S)-1-((2R)-2-(dimethylamino)-2-phenylacetyl)-2-pyrrolidinyl)-1H-imidazol-5-yl)-2-pyrimidinyl)phenyl)-1H-imidazol-2-yl)ethyl)-N-methyl-2-phenylacetamide] | 1 to 99
2 | COC(=O)N[C@@H](C(=O)N(C)[C@@H](C)c1ncc(-c2ccc(-c3ncc(-c4cnc([C@@H]5CCCN5C(=O)[C@H](NC(=O)OC)c5ccccc5)[nH]4)cn3)cc2)[nH]1)c1ccccc1 [Example 152j-21, methyl ((1R)-2-((2S)-2-(5-(2-(4-(2-((1S)-1-(((2R)-2-((methoxycarbonyl)a-mino)-2-phenylacetyl)(methyl)amino)ethyl)-1H-imidazol-5-yl)phenyl)-5-pyrimidinyl)-1H-imidazol-2-yl)-1-pyrrolidinyl)-2-oxo-1-phenylethyl)carbamate] | 0.01 to 0.999
3 | COC(=O)N[C@@H](C(=O)N[C@@H](C)c1ncc(-c2ccc(-c3ccc(-c4cnc([C@@H]5CCCN5C(=O)[C@H](NC(=O)OC)c5ccccc5)[nH]4)cc3)nc2)[nH]1)c1ccccc1 [Example 152j-22, methyl ((1R)-2-((2S)-2-(5-(4-(5-(2-((1S)-1-(((2R)-2-((methoxycarbonyl)a-mino)-2-phenyl-acetyl)amino)eth-yl)-1H-imidazol-5-yl)-2-pyridinyl)phenyl)-1H-imidazol-2-yl)-1-pyrrolidinyl)-2-oxo-1-phenylethyl)carbamate] | 0.01 to 0.999
4 | COC(=O)N[C@@H](C(=O)N[C@@H](C)c1ncc(-c2ccc(-c3ccc(-c4cnc([C@H](C)NC(=O)[C@H](NC(=O)OC)c5ccccc5)[nH]4)cn3)cc2)[nH]1)c1ccccc1 [Example 152j-23] | 0.01 to 0.999
5 | C[C@H](NC(=O)[C@@H](c1ccccc1)N(C)C)c1ncc(-c2ccc(-c3ccc(-c4cnc([C@H](C)NC(=O)[C@@H](c5ccccc5)N(C)C)[nH]4)cn3)cc2)[nH]1 [Example 152j-24, (2R)-2-(dimethylamino)-N-((1S)-1-(5-(6-(4-(2-((1S)-1-(((2R)-2-(dimethylamino)-2-phenyl-acetyl)amino)eth-yl)-1H-imidazol-5-yl)phenyl)-3-pyridinyl)-1H-imidazol-2-yl)ethyl)-2-phenylacetamide] | 0.01 to 0.999
6 | COC(=O)N[C@@H](C(=O)N[C@@H](C)c1ncc(-c2ccc(-c3cnc(-c4cnc([C@@H]5CCCN5C(=O)[C@H](NC(=O)OC)c5ccccc5)[nH]4)cn3)cc2)[nH]1)c1ccccc1 [Example 152j-28] | 0.01 to 0.999
7 | COC(=O)N[C@@H](C(=O)N(C)[C@@H](C)c1ncc(-c2ccc(-c3ncc(-c4cnc([C@@H]5CCCN5C(=O)[C@@H](c5ccccc5)N5CCCCC5)[nH]4)cn3)cc2)[nH]1)c1ccccc1 [Example 152l-1, methyl ((1R)-2-(meth-yl((1S)-1-(4-(4-(5-(2-((2S)-1-((2R)-2-phenyl-2-(1-piperi-dinyl)acetyl)-2-pyrrolidinyl)-1H-imidazol-5-yl)-2-pyrimi-dinyl)phenyl)-1H-imidazol-2-yl)eth-yl)amino)-2-oxo-1-phenyl-ethyl)carbamate] | 0.01 to 0.999
8 | COC(=O)N[C@@H](C(=O)N[C@@H](C)c1ncc(-c2ccc(-c3ncc(-c4cnc([C@@H]5CCCN5C(=O)[C@@H](c5ccccc5)N5CCCCC5)[nH]4)cn3)cc2)[nH]1)c1ccccc1 [Example 152l-2, methyl ((1R)-2-oxo-1-phen-yl-2-(((1S)-1-(4-(4-(5-(2-((2S)-1-((2R)-2-phenyl-2-(1-piperi-dinyl)acetyl)-2-pyrrolidinyl)-1H-imidazol-5-yl)-2-pyrimi-dinyl)phenyl)-1H-imidazol-2-yl)eth-yl)amino)ethyl)car-bamate] | 0.01 to 0.999
9 | COC(=O)N[C@@H](C(=O)N1CCC[C@H]1c1ncc(-c2ccc(-c3ncc(-c4cnc([C@@H]5CCCN5C(=O)[C@@H](c5ccccc5)N5CCCCC5)[nH]4)cn3)cc2)[nH]1)c1ccccc1 [Example 152l-3, methyl ((1R)-2-oxo-1-phe-nyl-2-((2S)-2-(4-(4-(5-(2-((2S)-1-((2R)-2-phenyl-2-(1-piperidinyl)acetyl)-2-pyrrolidinyl)-1H-imidazol-5-yl)-2-pyrimi-dinyl)phenyl)-1H-imidazol-2-yl)-1-pyrroli-dinyl)ethyl)carba-mate] | 0.01 to 0.999
10 | CN(C)[C@@H](C(=O)N1CCC[C@H]1c1ncc(-c2ccc(-c3ccc(-c4cnc([C@@H]5CCCN5C(=O)[C@@H](c5ccccc5)N(C)C)[nH]4)nn3)nn2)[nH]1)c1ccccc1 [Example 153c-1] | 1 to 99
11 | COC(=O)N[C@@H](C(=O)N1CCC[C@H]1c1ncc(-c2ccc(-c3ccc(-c4cnc([C@@H]5CCCN5C(=O)[C@H](NC(=O)OC)c5ccccc5)[nH]4)nn3)nn2)[nH]1)c1ccccc1 [Example 153c-2, dimethyl (3,3′-bipyrida-zine-6,6′-diylbis(1H-imi-dazole-5,2-diyl(2S)-2,1-pyrrolidine-diyl((1R)-2-oxo-1-phenyl-2,1-ethane-diyl)))biscarba-mate] | 1 to 99
12 | CN(C)[C@@H](C(=O)N1CCC[C@H]1c1ncc(-c2cnc(-c3ncc(-c4cnc([C@@H]5CCCN5C(=O)[C@@H](c5ccccc5)N(C)C)[nH]4)cn3)nc2)[nH]1)c1ccccc1 [Example 153c-3, (1R,1′R)-2,2′-(2,2′-bipyrimi-dine-5,5′-diylbis(1H-imidazole-5,2-diyl (2S)-2,1-pyrrolidine-diyl))bis(N, N-dimeth-yl-2-oxo-1-phenyl-ethanamine)] | 1000 to 10000
13 | COC(=O)N[C@@H](C(=O)N1CCC[C@H]1c1ncc(-c2cnc(-c3ncc(-c4cnc([C@@H]5CCCN5C(=O)[C@H](NC(=O)OC)c5ccccc5)[nH]4)cn3)nc2)[nH]1)c1ccccc1 [Example 153c-4, dimethyl (2,2′-bipyrimi-dine-5,5′-diylbis(1H-imi-dazole-5,2-diyl (2S)-2,1-pyrrolidine-diyl((1R)-2-oxo-1-phe-nyl-2,1-ethane-diyl)))biscarba-mate] | 1000 to 10000
14 | CN(C)[C@@H](C(=O)N1CCC[C@H]1c1ncc(-c2cnc(-c3cnc(-c4cnc([C@@H]5CCCN5C(=O)[C@@H](c5ccccc5)N(C)C)[nH]4)cn3)cn2)[nH]1)c1ccccc1 [Example 153c-5, (1R,1′R)-2,2′-(2,2′-bipyrazine-5,5′-diylbis(1H-imidazole-5,2-diyl (2S)-2,1-pyrrolidine-diyl))bis(N, N-dimeth-yl-2-oxo-1-phenyl-ethanamine)] | 1 to 99
15 | COC(=O)N[C@@H](C(=O)N1CCC[C@H]1c1ncc(-c2cnc(-c3cnc(-c4cnc([C@@H]5CCCN5C(=O)[C@H](NC(=O)OC)c5ccccc5)[nH]4)cn3)cn2)[nH]1)c1ccccc1 [Example 153c-6, dimethyl (2,2′-bipyrazine-5,5′-diylbis(1H-imi-dazole-5,2-diyl (2S)-2,1-pyrrolidine-diyl((1R)-2-oxo-1-phe-nyl-2,1-ethane-diyl)))biscarba-mate] | 1 to 99
16 | COC(=O)N[C@@H](C(=O)N[C@@H](C)c1ncc(-c2ccc(-c3ccc(-c4cnc([C@H](C)NC(=O)[C@H](NC(=O)OC)c5ccccc5)[nH]4)cn3)nc2)[nH]1)c1ccccc1 [Example 153c-7, dimethyl (2,2′-bipyridine-5,5′-diylbis (1H-imidazole-5,2-diyl (1S)-1,1-ethanediyl-imino((1R)-2-oxo-1-phenyl-2,1-ethane-diyl)))biscarba-mate] | 1 to 99
17 | COC(=O)N[C@@H](C)C(=O)N1CCC[C@H]1c1nc(-c2cnc(-c3ccc(-c4cnc([C@@H]5CCCN5C(=O)[C@H](C)NC(=O)OC)[nH]4)c(F)c3)nc2)c[nH]1 [Example D67, methyl ((1S)-2-((2S)-2-(5-(2-flouro-4-(5-(2-((2S)-1-(N-(methoxy-carbonyl)-L-alanyl)-2-pyrroli-dinyl)-1H-imida-zol-5-yl)-2-pyrimi-dinyl)phenyl)-1H-imida-zol-2-yl)-1-pyrrolidinyl)-1-methyl-2-oxoeth-yl)carbamate] | 0.01 to 0.999
18 | COC(=O)N[C@@H](C(=O)N1CCC[C@H]1c1nc(-c2cnc(-c3ccc(-c4cnc([C@@H]5CCCN5C(=O)[C@H](NC(=O)OC)c5ccccc5)[nH]4)c(F)c3)nc2)c[nH]1)c1ccccc1 [Example D69, methyl ((1R)-2-((2S)-2-(5-(2-(3-fluoro-4-(2-((2S)-1-((2R)-2-((methoxy-carbonyl)a-mino)-2-phenyl-acetyl)-2-pyrroli-dinyl)-1H-imidazol-5-yl)phenyl)-5-pyrimi-dinyl)-1H-imida-zol-2-yl)-1-pyrrolidinyl)-2-oxo-1-phenyl-eth-yl)carbamate] | 0.01 to 0.999
19 | COC(=O)N[C@H](C(=O)N1CCC[C@H]1c1nc(-c2cnc(-c3ccc(-c4cnc([C@@H]5CCCN5C(=O)[C@@H](NC(=O)OC)[C@@H](C)OC)[nH]4)c(F)c3)nc2)c[nH]1)[C@@H](C)OC [Example D70, methyl ((1S,2R)-1-(((2S)-2-(5-(2-fluoro-4-(5-(2-((2S)-1-(N-(methoxy-carbonyl)-O-methyl-L-threonyl)-2-pyrroli-dinyl)-1H-imida-zol-5-yl)-2-pyrimidi-nyl)phenyl)-1H-imida-zol-2-yl)-1-pyrroli-dinyl)carbo-nyl)-2-methoxy-propyl)carba-mate] | 0.01 to 0.999

Same assay, conditions: read-out: EC50 range against HCV 1b (Range)

Row | SMILES | EC50 [nM]
20 | COC(=O)N[C@H](C(=O)N1CCC[C@H]1c1ncc(-c2cnc(-c3ccc(-c4cnc([C@@H]5CCCN5C(=O)[C@@H](NC(=O)OC)C(C)C)[nH]4)c(F)c3)nc2)[nH]1)C(C)C [Example D68, methyl ((1S)-1-(((2S)-2-(5-(2-fluoro-4-(5-(2-((2S)-1-((2S)-2-((methoxy-carbonyl)a-mino)-3-methyl-butanoyl)-2-pyrroli-dinyl)-1H-imida-zol-5-yl)-2-pyrimi-dinyl)phenyl)-1H-imida-zol-2-yl)-1-pyrroli-dinyl)carbo-nyl)-2-methylpro-pyl)carbamate] | 0.01 to 0.999
